# Laboratory results taken from patent publication US11879021B2, “Cyclic peptides and uses thereof” (UNIVERSITÉ DE MONTRÉAL, priority 2016, dated 2024).
# Values joined by “and” are separate entries in the source; they are usually repeats but may differ in a detail not shown here. Equal entries are not always repeated. Numbered stars: 1 amine (or outer) side, 2 acyl side, 3 side chain; on linkers, the order of the positions; unused ones are H or OH. Square brackets hold non-standard residues; d marks the D form. Peptide text beside a SMILES is read from it. azaTyr = O=C(N(Cc1ccc(O)cc1)N[*:1])[*:2]
# Experiments:
# [1] = biological target: T1, CD36 (Rattus norvegicus, UniProt Q07969); test: Competition binding of photoactivatable [125I]-Tyr-Bpa-Ala-Hexarelin to CD36 in rat cardiac membranes; settings: competition with [125I]-Tyr-Bpa-Ala-Hexarelin, rat heart membranes; for IC50: read-out: IC50 (μM), binding affinity for CD36
# T1 construct: from tissue; host or cells: Heart (cardiac membranes) of Sprague Dawley rats from Charles River
# T1 sequence (Q07969 whole entry): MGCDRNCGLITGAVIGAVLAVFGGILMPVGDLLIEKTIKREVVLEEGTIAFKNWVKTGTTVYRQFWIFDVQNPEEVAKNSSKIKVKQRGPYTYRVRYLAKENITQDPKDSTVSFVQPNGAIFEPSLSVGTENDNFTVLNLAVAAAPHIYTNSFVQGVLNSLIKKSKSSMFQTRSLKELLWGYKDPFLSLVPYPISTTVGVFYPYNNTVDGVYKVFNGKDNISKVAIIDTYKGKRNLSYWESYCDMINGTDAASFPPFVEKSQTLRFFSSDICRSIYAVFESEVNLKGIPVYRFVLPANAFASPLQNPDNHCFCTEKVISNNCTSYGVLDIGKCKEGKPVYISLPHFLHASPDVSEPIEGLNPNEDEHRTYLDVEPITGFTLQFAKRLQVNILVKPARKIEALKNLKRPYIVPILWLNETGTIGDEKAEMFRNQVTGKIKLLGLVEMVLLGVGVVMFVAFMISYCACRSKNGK
# Method: Hearts from Sprague Dawley rats (300-325 g) from Charles River were cut into small pieces and homogenized with a Polytron® at low speed, 3×15 sec in buffer A (10 mM NaHCO3, 5 mM NaN3, 10 μM Pefabloc®, 0.1 μM Aprotinin, 1 μM Pepstatin A, 1 μM Leupeptin, pH 7.0) at a concentration of […] of tissue. The homogenate was first centrifuged at 8,700×g for 20 min in a Sorvall® centrifuge and the supernatant was collected on ice. The pellet was resuspended and re-homogenized with a Glass-Teflon® Potter by 5 strokes. This homogenate was recentrifuged at 8,700×g for 10 min and the resulting supernatant was combined with the first collected supernatant. The combined supernatant was centrifuged at 35,000×g for 20 min. The pellet fraction obtained was resuspended in Buffer B (20 mM Tris-maleate, 0.6M KCl, pH 6.8) in a volume corresponding to 20 mL/g of fresh tissue using a glass homogenizer with a Teflon pestle. The resulting suspension was centrifuged again at 35,000×g for 60 min. and the pellet fraction obtained was resuspended in Buffer C (10 mM Tris/HCl buffer pH 7.4) and thoroughly homogenized in a glass with a Teflon® pestle (20 ml/g of fresh tissue). This suspension was submitted to another centrifugation at 35,000×g for 60 min. The collected pellet was resuspended in 50 mM Tris/HCl buffer pH 7.4) containing 2 mM EGTA in a final volume corresponding to 1-2 mL/g of fresh tissue. The membrane preparation obtained was frozen at −80° C. Protein concentration was determined using the bicinchoninic acid (BCA) method, employing BSA as standard.
# The reaction was started by adding 3 nmol of H2O2 for 5 min at room temperature. This step was repeated twice with a period of 5 min of incubation for each addition. The reaction was stopped by diluting the mixture with 1 mL of 0.1% TFA. The radioiodinated peptide was purified by HPLC on a reverse-phase Vydac® C18 column with a 60-min linear gradient from 20% to 50% of acetonitrile in 0.1% TFA. The eluted radiolabelled tracer was collected, aliquoted (50×10^6 cpm/fraction) and stored at −80° C.
# Binding studies with MPE-298 were done with increasing concentrations from 0.01 to 5 μM of competition ligands. Nonspecific binding was defined as binding not displaced by 50 μM corresponding peptide. All peptide containing solutions were diluted in Buffer B. Buffer A and B were degassed under vacuum, and used in capped tubes in order to minimize lipid peroxidation. Before the incubation period, all tubes were put under a low flow of nitrogen. All material was kept on ice and the binding assay was performed in darkness. After an incubation period of 60 min at 22° C. (vortexing every 15 min), membranes were submitted to irradiation with UV lamps (365 nm) for 15 min at 4° C. After centrifugation at 12,000×g for 15 minutes, the pellets were resuspended in 40 μl of sample buffer (62 mM Tris-HCl, pH 6.8, 2% SDS, 10% glycerol, 15% 2-mercaptoethanol, and 0.05% bromophenol blue), and boiled for 5 min prior to being subjected to electrophoresis. Proteins (50 μg/40 μl) were separated on a 7.5% SDS-PAGE Bio-Rad® Mini-Protean electrophoresis system (150 V for 1 h). The gels resulting from SDS/PAGE were fixed, colored in Coomassie Brilliant Blue R-250, dried, exposed to a storage phosphor intensifying screen (Amersham Biosciences), and analysed using a Typhoon® PhosphorImager (GE Healthcare Life Sciences®). […] The curves were analysed by using software package (Graphpad® prism version 7.0).
# [2] = tested on: R-FSL-1 (TLR2 agonist)-induced NO production in RAW macrophage cell line; test: Nitric oxide (NO) production induced by TLR2 agonist R-FSL-1 in RAW macrophage cell line; type: cell-based, murine; settings: RAW macrophages, at the concentration tested (10^−6 or 10^−7 M), FIGS. 4A to 4F
# Method: The murine RAW1 macrophage cell line was obtained from American Type Cell Collection (ATCC #TIB-71), seeded at 1.5×10^5 cells/well in Dulbecco's Modified Eagle's medium (DMEM) containing 100 U/mL of penicillin (Pen) and 100 μg/mL of streptomycin (Strep) on a 48-well plate (Costar® #3548), and incubated at 37° C. with 5% CO2. After 2 h, the cell culture medium of adhered cells was removed and replaced by DMEM-Pen/Strep medium containing 0.2% of bovine serum albumin (BSA), and supplemented with the cyclic peptides at a concentration of 10^−6 or 10^−7 M. MPE-001 (DBG178, His-D-Trp-Ala-AzaTyr-D-Phe-Lys-NH2) and [azaLys^6]-GHRP-6 (His-D-Trp-Ala-Trp-D-Phe-azaLys-NH2, negative control) at 10^−6 M were used as positive and negative controls, respectively. After 1 h pre-incubation, the cells were stimulated overnight using the TLR2 ligand fibroblast-stimulating lipopeptide (R-FSL-1) (Invivogen® #L7022) at a concentration of 300 ng/mL. Supernatants were then collected for nitrite production analysis by fluorescence using 2,3-diaminonaphthalene (DAN). Briefly, 25 μL of sample was incubated with 0.5 μg of DAN in a 100 μL final volume of phosphate buffer (50 mM, pH 7.5) at room temperature in the dark. After 15 min, the reaction was stopped with 20 μL of NaOH (2.8N) and the plate was read using a fluorescence plate reader (TECAN® Safire, λexc 365 nm and λem 430 nm).
SMILES,IC50 [1],binding to CD36 (in words) [1],suppression of R-FSL-1-mediated NO production [2]
C=CCN1CC#CCN(NC(=O)C(C)N)C(=O)N[C@H](Cc2c[nH]c3ccccc23)C(=O)N[C@@H](C)C(=O)N[C@@H](Cc2c[nH]c3ccccc23)C(=O)N[C@H](Cc2ccccc2)C(=O)N[C@H](C(N)=O)CCCC1 (stereo in doubt) [MPE-202],14.3 µM,–,–
C=CCN1CC#CCC(NC(=O)[C@H](C)N)C(=O)N[C@H](Cc2c[nH]c3ccccc23)C(=O)N[C@@H](C)C(=O)N[C@@H](Cc2c[nH]c3ccccc23)C(=O)N[C@H](Cc2ccccc2)C(=O)N[C@H](C(N)=O)CCC1 (stereo partly shown) [MPE-048],13.7 µM,detectable binding,–
C=CCN1CC#CC[C@@H](NC(=O)[C@H](C)N)C(=O)N[C@@H](C)C(=O)N[C@@H](Cc2c[nH]c3ccccc23)C(=O)N[C@H](Cc2ccccc2)C(=O)N[C@H](C(N)=O)CCCC1 [MPE-110],3.32 µM,detectable binding,–
C=CCN1CC#CCN(NC(=O)[C@@H](C)N)C(=O)N[C@H](Cc2c[nH]c3ccccc23)C(=O)N[C@@H](C)C(=O)NN(Cc2ccc(OC)cc2)C(=O)N[C@H](Cc2ccccc2)C(=O)N[C@H](C(N)=O)CCCC1 [MPE-189],3.26 µM,detectable binding,significant suppression
C=CCN1CC#CCN(NC(=O)[C@H](C)N)C(=O)N[C@H](Cc2c[nH]c3ccccc23)C(=O)N[C@@H](C)C(=O)N[C@H](C(=O)N[C@H](Cc2ccccc2)C(=O)N[C@@H](CCCCN)C(N)=O)CCCC1 [MPE-300],10 µM and 10.6 µM,–,significant suppression
C=CCN1CC#CCN(NC(=O)[C@H](C)N)S(=O)(=O)N[C@H](Cc2c[nH]c3ccccc23)C(=O)N[C@@H](C)C(=O)N[C@@H](Cc2c[nH]c3ccccc23)C(=O)N[C@H](Cc2ccccc2)C(=O)N[C@H](C(N)=O)CCCC1 [MPE-400],11.6 µM,detectable binding,–

# Further lines, with some results ahead:
IC50 [1],binding to CD36 (in words) [1],SMILES,suppression of R-FSL-1-mediated NO production [2]
2.26 µM,–,C=CCN1CC#CCN(NC(=O)C(N)C(C)C)C(=O)N[C@H](Cc2c[nH]c3ccccc23)C(=O)N[C@@H](C)C(=O)N[C@@H](Cc2c[nH]c3ccccc23)C(=O)N[C@H](Cc2ccccc2)C(=O)N[C@H](C(N)=O)CCCC1 (stereo in doubt) [MPE-203],–
~2 µM,–,"C[C@H](NC(=O)[C@@H](Cc1c[nH]c2ccccc12)NC(=O)[C@@H](N)Cc1c[nH]cn1)C(=O)NN(Cc1ccc(O)cc1)C(=O)N[C@H](Cc1ccccc1)C(=O)N[C@@H](CCCCN)C(N)=O [MPE-001, His-D-Trp-Ala-AzaTyr-D-Phe-Lys-NH2, reference compound] (H-H[dW]A[azaTyr][dF]K-NH2)",–
1.04 µM,detectable binding,C=CCN1CC#CC[C@@H](NC(=O)[C@H](C)N)C(=O)N[C@H](Cc2c[nH]c3ccccc23)C(=O)N[C@@H](C)C(=O)N[C@@H](Cc2c[nH]c3ccccc23)C(=O)N[C@H](Cc2ccccc2)C(=O)N[C@H](C(N)=O)CCCC1 [MPE-074],–
0.66 µM,detectable binding,C=CCN1CC#CC[C@H](NC(=O)[C@H](C)N)C(=O)N[C@H](Cc2c[nH]c3ccccc23)C(=O)N[C@@H](C)C(=O)N[C@@H](Cc2c[nH]c3ccccc23)C(=O)N[C@H](Cc2ccccc2)C(=O)N[C@H](C(N)=O)CCCC1 [MPE-075],significant suppression
0.24 µM,detectable binding,C=CCN1CC#CC[C@H](NC(=O)[C@H](C)N)C(=O)N[C@@H](C)C(=O)N[C@@H](Cc2c[nH]c3ccccc23)C(=O)N[C@H](Cc2ccccc2)C(=O)N[C@H](C(N)=O)CCCC1 [MPE-111],significant suppression
